According to US20230414771A1, “PREPARATION AND USE OF IMMUNOSTIMULATORY CONJUGATED COMPLEXES FOR TARGETED DELIVERY AND ACTIVATION” (YAFEI SHANGHAI BIOLOGY MEDICINE SCIENCE & TECHNOLOGY CO., …, priority 2020, published 2023):
Where a SMILES comes first, the peptide text is derived from it. The star is where a group is joined. Doxorubicin(3'-N) = COc1cccc2c1C(=O)c1c(O)c3c(c(O)c1C2=O)C[C@@](O)(C(=O)CO)C[C@@H]3O[C@H]1C[C@H](N*)[C@H](O)[C@H](C)O1; Hexanoyl(6-maleimido) = O=C1C=CC(=O)N1CCCCCC(=O)*

Tests used:
HSA = HSA (Homo sapiens, UniProt P02768); assay: Binding of compounds with HSA (albumin coupling); conditions: compound with HSA 3:1, 37° C. for 3 h
Chain of HSA (P02768 25-609): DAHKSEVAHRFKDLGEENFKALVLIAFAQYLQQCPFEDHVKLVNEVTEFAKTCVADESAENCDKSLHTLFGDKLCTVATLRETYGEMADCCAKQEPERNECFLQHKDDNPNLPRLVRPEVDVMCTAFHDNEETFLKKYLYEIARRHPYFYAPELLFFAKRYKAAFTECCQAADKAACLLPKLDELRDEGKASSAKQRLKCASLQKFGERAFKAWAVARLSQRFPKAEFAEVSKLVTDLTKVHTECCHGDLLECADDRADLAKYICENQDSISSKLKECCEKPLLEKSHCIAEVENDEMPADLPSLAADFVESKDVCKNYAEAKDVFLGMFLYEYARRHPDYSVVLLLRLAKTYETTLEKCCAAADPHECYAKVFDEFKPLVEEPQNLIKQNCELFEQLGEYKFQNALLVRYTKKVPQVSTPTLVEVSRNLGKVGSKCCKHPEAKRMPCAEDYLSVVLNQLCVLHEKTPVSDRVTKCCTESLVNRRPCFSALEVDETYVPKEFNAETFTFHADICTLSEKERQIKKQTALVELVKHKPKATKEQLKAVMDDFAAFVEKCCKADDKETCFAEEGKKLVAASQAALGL
Procedure: HSA was dissolved in sterile water. The compound was combined with HSA at a ratio of 3:1 (4.8 umol/mL, 1.6 umol/mL), and reacted in a water bath at 37° C. for 3 h. The reaction solution was taken out, and the unbound compound was filtered by pressurized ultrafiltration membrane, diluted with normal saline and filtered for 3 times to obtain the semi-finished product.

[1] = system: acidified human breast cancer (MDA-MB435) tumor tissue homogenate; assay: Activation efficiency of S-C-A linkers in tumor tissue homogenate, HPLC; format: biochemical; conditions: Table 2-1; C is AAN; 1 mg/ml, homogenate pH 6.0, 37° C.
Procedure: When C is AAN, the activation of the different S-C-A linkers and the control linker is evaluated in an activation assay. They were dissolved and diluted tenfold using S-C-A conjugates to a concentration of 0.1 mM/ml. The sample compounds were added at a concentration of 1 mg/ml to 100 μg of acidified human breast cancer (MDA—MB435) tumor tissue homogenate (pH 6.0) at 37° C. The enzyme in the tumor tissue homogenate was released and detected by HPLC to compare the efficiency of activation of the linker by the tumor tissue.
The effect of the D-type tripeptide on the activation efficiency was examined in comparison to the native peptide sequence linker cleaved by Legumain, S1 in MI-S is —CH2CH2—CONH—, S2: 2 peg.

M2 macrophages = assay: Cytotoxicity screening, inhibition rate of M2 macrophages at 10 uM; format: cell-based, C57BL/6 mice; conditions: 10 uM drug per well, 3 wells, relative to the drug-free group
Procedure: After the cell count in Example 13, the cell concentration was adjusted with the culture medium, and the cells were seeded in a 96-well culture plate at […] of cell suspension per well, wherein the seeding concentration of CD8+ T cells was 100000 cells/well, and the seeding concentration of M2 macrophages was 20000 cells/well. The 96-well plate was incubated overnight for 24 hour at 37° C. in a carbon dioxide (5%) incubator. After 24 hours, 100 ul of cell culture solutions containing different concentrations of drugs were added to the 96-well culture plate. At the same time, a control well (0.1% DMSO) with no drug added and only the corresponding drug solvent and a zero-adjusted well (Blank) with only medium and no cells added was set. Each set was prepared in triplicate and the plates were incubated for 48 hours at 37° C. in a 5% CO2 incubator. After 48 hours, 20 μl MTT (5 mg/ml) was added to each well and the incubation was continued for 4 hours. The culture medium was then gently aspirated, and 150 μl DMSO was added to each well as solvent for dissolution. After dissolution, the absorbance at 490 nm was measured with a microplate reader.
Cytotoxicity screening experiments for some compounds were performed for M2 macrophage inhibition as in embodiment 14.

[2] = system: Human pancreatic carcinoma Panc-1 tumor tissue homogenate; assay: Activation in Panc-1 tumor tissue homogenate; format: biochemical; conditions: Panc-1 homogenate pH 6.0, 37° C., 1 mg/ml
Procedure: In the experiments of the present disclosure, 1 mg/ml of the sample compound was added to 100 μg of acidified tumor tissue homogenate (pH 6.0) at 37° C. The enzyme in the tumor tissue homogenate can cause the release of doxorubicin, and the reduction of compound and the increase of doxorubicin could be detected by HPLC to compare the activation efficiency of the drug in the tumor tissue.

Human heart = assay: Activation in human heart homogenate; format: biochemical; conditions: pH 6.0, 37° C., 1 mg/ml
[3] = Tissue distribution of released doxorubicin in orthotopic liver CT26 tumor mice; format: in vivo, BALB/c mice
Procedure: • Objective: To investigate the tissue distribution of activating drugs in liver tumors. • Test animals: BALB/c mice, 6-8 weeks old, all female.
• 1) CT26 cells were purchased from ATCC. […] Randomization was performed when the tumor size reached 800-1000 mm^3. Tumor tissue was then extracted and cut into 100 mm^3 tumor tissue pieces and transplanted orthotopically into BALB/c mouse livers. • 3) Administration process: After 14 days, when the orthotopically transplanted tumor grew, a group of 36 orthotopically transplanted tumor mice were treated with drugs. […] The previously published use of EMC-AANL-DOX was for breast cancer treatment.

[4] = Solution stability, HPLC and electrophoresis; conditions: 0.5 mg/ml, pH 5.5, 25° C.
Procedure: Add 0.5 ml of sterile water for injection to prepare a 10 mg/ml mother solution. […] Take 30 ul of the mother solution, add 570 ul of buffer solutions with different pH values of 5.5, and prepare a 0.5 mg/ml sample solution. After the sample was clarified, it was placed in a 25° C./37° C. water bath, and after 8 hours, the sample was sampled by HPLC and electrophoresis to detect the content of the sample relative to 0 hours, and the solution stability data of different compounds could be obtained.

| SMILES | binding rates of HSA (HSA) | Activation efficiency (%) [1] | Inhibition rate of M2 macrophages (M2 macrophages) | Compound activation ratios (%) [2] | Compound activation ratios (%) (Human heart) | doxorubicin delivery and activation compared with EMC-AANL-DOX ([3]; liver and in situ liver tumor) | distribution of active doxorubicin (FIGS. 8 and 9) ([3]; tissues collected at 1-72 hr, AUClast) | Stability data of the solution, 8 hr (content relative to 0 hours) [4] |
| --- | --- | --- | --- | --- | --- | --- | --- | --- |
| COc1cccc2c1C(=O)c1c(O)c3c(c(O)c1C2=O)C[C@@](O)(C(=O)CO)C[C@@H]3O[C@H]1C[C@H](NC(=O)[C@H](CC(C)C)NC(=O)[C@H](CC(N)=O)NC(=O)[C@H](C)NC(=O)[C@H](C)NC(=O)CCCCCN2C(=O)C=CC2=O)[C@H](O)[C@H](C)O1 [EMC-AANL-DOX] ({Hexanoyl(6-maleimido)}-AANL-{Doxorubicin(3'-N)}) | 62% | 56.4% | 34.6% | 54.8% | 0.2% | – | – | – |
| COc1cccc2c1C(=O)c1c(O)c3c(c(O)c1C2=O)C[C@@](O)(C(=O)CO)C[C@@H]3O[C@H]1C[C@H](NC(=O)[C@H](CC(C)C)NC(=O)[C@H](CC(N)=O)NC(=O)[C@H](C)NC(=O)[C@H](C)NC(=O)CCOCCOCCNC(=O)CCN2C(=O)C=CC2=O)[C@H](O)[C@H](C)O1 [QHL-087-DOX] | – | – | – | – | – | enhanced doxorubicin delivery and activation in situ liver cancer | mainly distributed in the liver and liver orthotopic tumors | 98.2% |
